Test results from paper PMC12850010, “Interaction of cytochrome P450 3A4 with the hydrophilic ligand tetraethylene glycol” (Biochemical and biophysical research communications, 2025).

Assays:
[1] = molecular target: T1, CYP3A4 (Homo sapiens, UniProt P08684); experiment: Spectral binding (equilibrium) titrations of CYP3A4; conditions: for Kd: human, CYP3A4 protein solution (2 μM), sigmoidal (Hill) fit
Description: (§1) Equilibrium titrations of CYP3A4 were conducted in a Cary 300 spectrophotometer at ambient temperature in 0.1 M phosphate, pH 7.4. […] The binding parameters were determined from fittings to the plot of the absorbance change (peak-to-trough separations in the difference spectra; ΔA) vs ligand concentration.

[2] = molecular target: T1, CYP3A4; conditions: pH 7.4
Description: as §1

T1 sequence (P08684 with tags, fused parts or gaps): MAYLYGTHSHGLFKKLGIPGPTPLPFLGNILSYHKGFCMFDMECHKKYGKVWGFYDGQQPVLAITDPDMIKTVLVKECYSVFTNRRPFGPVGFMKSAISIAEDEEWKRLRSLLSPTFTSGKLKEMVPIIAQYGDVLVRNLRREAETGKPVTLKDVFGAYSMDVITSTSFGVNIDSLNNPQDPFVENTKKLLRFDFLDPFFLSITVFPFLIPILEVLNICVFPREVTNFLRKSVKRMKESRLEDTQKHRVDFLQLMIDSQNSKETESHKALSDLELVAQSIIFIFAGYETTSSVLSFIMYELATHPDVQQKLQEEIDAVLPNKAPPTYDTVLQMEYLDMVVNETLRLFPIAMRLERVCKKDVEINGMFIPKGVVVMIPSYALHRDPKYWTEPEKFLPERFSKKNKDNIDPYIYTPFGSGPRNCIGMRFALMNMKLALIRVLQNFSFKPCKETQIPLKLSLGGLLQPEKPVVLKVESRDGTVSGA

SMILES | decrease of binding affinity for WT CYP3A4 in the presence of TEG ([1]; 15 mM TEG vs no TEG) [%] | Kd ([1]; pH 7.4, S50, 15 mM TEG) [µM] | Kd ([1]; pH 7.4, S50, no TEG) [µM] | nH (Hill coefficient) [2]
Cc1ncc2n1-c1ccc(Cl)cc1C(c1ccccc1F)=NC2 [Midazolam] | 30 | – | – | –
CC(=O)[C@H]1CC[C@H]2[C@@H]3CCC4=CC(=O)CC[C@]4(C)[C@H]3CC[C@]12C [Progesterone] | – | 16 ± 2 | 17 ± 1 | 1.6 ± 0.1
